In patent US10851105B2, “Bicyclic heterocycles as FGFR4 inhibitors” (Incyte Corporation, priority 2014, dated 2020):
Like-named read-outs stand apart in the source and are kept apart here.

Tests used:
FGFR1 = FGFR1 (Homo sapiens (Human), UniProt P11362); assay: FGFR Enzymatic Assay (FRET peptide phosphorylation), FGFR1; conditions: for FGFR1/FGFR4: IC50 ratio
Experimental: (§1) The inhibitor potency of the exemplified compounds was measured in an enzyme assay that measures peptide phosphorylation using FRET measurements to detect product formation. Inhibitors were serially diluted in DMSO and a volume of 0.5 μL was transferred to the wells of a 384-well plate. For FGFR3, a 10 μL volume of FGFR3 enzyme (Millipore) diluted in assay buffer (50 mM HEPES, 10 mM MgCl2, 1 mM EGTA, 0.01% Tween-20, 5 mM DTT, pH 7.5) was added to the plate and pre-incubated for a time between 5-10 minutes and up to 4 hours. Appropriate controls (enzyme blank and enzyme with no inhibitor) were included on the plate. […] The plate was incubated at 25° C. for 1 hr. […] The plate was allowed to equilibrate for ˜1 hr before scanning the wells on a PheraStar plate reader (BMG Labtech).
(§2) The enzymes were purchased from Millipore or Invitrogen.
(§3) GraphPad prism3 was used to analyze the data. The IC50 values were derived by fitting the data to the equation for a sigmoidal dose-response with a variable slope. Y=Bottom+(Top-Bottom)/(1+10^((Log IC50−X)*HillSlope)) where X is the logarithm of concentration and Y is the response.

FGFR4 = FGFR4 (Homo sapiens (Human), UniProt P22455); assay: FGFR Enzymatic Assay (FRET peptide phosphorylation), FGFR4
Experimental: as §1, §2, §3

FGFR2 = FGFR2 (Homo sapiens (Human), UniProt P21802); assay: FGFR Enzymatic Assay (FRET peptide phosphorylation), FGFR2; conditions: for FGFR2/FGFR4: IC50 ratio
Experimental: as §1, §2, §3

FGFR3 = FGFR3 (Homo sapiens (Human), UniProt P22607); assay: FGFR Enzymatic Assay (FRET peptide phosphorylation), FGFR3; conditions: for FGFR3/FGFR4: IC50 ratio
Experimental: Inhibitors were serially diluted in DMSO and a volume of 0.5 μL was transferred to the wells of a 384-well plate. For FGFR3, a 10 μL volume of FGFR3 enzyme (Millipore) diluted in assay buffer (50 mM HEPES, 10 mM MgCl2, 1 mM EGTA, 0.01% Tween-20, 5 mM DTT, pH 7.5) was added to the plate and pre-incubated for a time between 5-10 minutes and up to 4 hours. Appropriate controls (enzyme blank and enzyme with no inhibitor) were included on the plate. […] The plate was incubated at 25° C. for 1 hr. […] The plate was allowed to equilibrate for ˜1 hr before scanning the wells on a PheraStar plate reader (BMG Labtech).
as §3

[1] = FGFR1 IC50 (nM), pre-incubated for 4 hours
[2] = pre-incubated for 5 to 10 minutes
[3] = read-out: FGFR1 IC50, pre-incubated for 5 to 10 minutes
[4] = read-out: FGFR4 IC50, pre-incubated for 5 to 10 minutes
[5] = read-out: FGFR4 IC50, pre-incubated for 4 hours
[6] = read-out: FGFR2 IC50, pre-incubated for 5 to 10 minutes
[7] = read-out: FGFR3 IC50, pre-incubated for 5 to 10 minutes
[8] = read-out: FGFR3 IC50, pre-incubated for 4 hours
[9] = FGFR1 IC50 (nM), pre-incubated for 5 to 10 minutes
[10] = read-out: FGFR1 IC50, pre-incubated for 4 hours
[11] = FGFR4 IC50 (nM), pre-incubated for 5 to 10 minutes
[12] = FGFR4 IC50 (nM), pre-incubated for 4 hours
[13] = read-out: FGFR2 IC50, pre-incubated for 4 hours

Chain of FGFR4 (P22455 22-802): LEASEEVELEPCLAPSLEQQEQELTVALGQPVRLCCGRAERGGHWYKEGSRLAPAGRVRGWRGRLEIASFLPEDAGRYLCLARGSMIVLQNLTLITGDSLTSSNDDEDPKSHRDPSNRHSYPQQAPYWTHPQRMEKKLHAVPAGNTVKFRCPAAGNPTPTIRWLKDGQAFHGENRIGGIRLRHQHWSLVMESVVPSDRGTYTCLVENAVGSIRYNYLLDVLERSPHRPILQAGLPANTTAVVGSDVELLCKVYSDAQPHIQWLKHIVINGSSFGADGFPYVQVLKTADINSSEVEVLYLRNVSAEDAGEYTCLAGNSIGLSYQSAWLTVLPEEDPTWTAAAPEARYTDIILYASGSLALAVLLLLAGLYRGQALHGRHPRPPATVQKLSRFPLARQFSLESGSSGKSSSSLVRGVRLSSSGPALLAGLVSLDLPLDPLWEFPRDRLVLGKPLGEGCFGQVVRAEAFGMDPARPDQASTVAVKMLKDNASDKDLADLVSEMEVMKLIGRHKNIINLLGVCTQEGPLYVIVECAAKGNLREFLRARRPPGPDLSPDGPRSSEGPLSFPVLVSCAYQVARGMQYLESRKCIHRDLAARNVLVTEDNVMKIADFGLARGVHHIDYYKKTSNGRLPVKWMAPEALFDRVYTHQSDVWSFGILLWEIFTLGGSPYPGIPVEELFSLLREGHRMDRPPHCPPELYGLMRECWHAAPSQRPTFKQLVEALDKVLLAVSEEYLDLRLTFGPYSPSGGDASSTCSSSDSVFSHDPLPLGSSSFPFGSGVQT
Chain of FGFR1 (P11362 22-822): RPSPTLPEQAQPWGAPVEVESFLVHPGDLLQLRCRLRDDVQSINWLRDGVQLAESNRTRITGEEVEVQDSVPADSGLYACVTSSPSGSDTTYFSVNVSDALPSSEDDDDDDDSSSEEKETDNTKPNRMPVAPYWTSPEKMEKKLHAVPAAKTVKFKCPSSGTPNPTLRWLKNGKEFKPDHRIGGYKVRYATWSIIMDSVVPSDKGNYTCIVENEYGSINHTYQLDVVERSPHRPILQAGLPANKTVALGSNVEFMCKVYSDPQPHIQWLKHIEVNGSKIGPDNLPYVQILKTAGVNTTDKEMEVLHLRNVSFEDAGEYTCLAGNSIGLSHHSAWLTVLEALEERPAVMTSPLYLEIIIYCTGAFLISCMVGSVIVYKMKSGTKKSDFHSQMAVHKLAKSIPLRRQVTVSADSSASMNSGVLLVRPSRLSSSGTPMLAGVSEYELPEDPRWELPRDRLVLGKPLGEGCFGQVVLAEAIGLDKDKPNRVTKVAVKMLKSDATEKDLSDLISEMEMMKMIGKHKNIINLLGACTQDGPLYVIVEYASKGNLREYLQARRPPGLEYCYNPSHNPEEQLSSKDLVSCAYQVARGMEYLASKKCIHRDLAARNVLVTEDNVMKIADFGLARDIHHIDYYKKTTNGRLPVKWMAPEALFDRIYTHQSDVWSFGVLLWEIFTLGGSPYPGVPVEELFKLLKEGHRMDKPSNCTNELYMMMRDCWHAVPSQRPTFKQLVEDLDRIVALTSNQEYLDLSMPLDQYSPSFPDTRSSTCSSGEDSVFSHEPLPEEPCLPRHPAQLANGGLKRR
Chain of FGFR2 (P21802 22-821): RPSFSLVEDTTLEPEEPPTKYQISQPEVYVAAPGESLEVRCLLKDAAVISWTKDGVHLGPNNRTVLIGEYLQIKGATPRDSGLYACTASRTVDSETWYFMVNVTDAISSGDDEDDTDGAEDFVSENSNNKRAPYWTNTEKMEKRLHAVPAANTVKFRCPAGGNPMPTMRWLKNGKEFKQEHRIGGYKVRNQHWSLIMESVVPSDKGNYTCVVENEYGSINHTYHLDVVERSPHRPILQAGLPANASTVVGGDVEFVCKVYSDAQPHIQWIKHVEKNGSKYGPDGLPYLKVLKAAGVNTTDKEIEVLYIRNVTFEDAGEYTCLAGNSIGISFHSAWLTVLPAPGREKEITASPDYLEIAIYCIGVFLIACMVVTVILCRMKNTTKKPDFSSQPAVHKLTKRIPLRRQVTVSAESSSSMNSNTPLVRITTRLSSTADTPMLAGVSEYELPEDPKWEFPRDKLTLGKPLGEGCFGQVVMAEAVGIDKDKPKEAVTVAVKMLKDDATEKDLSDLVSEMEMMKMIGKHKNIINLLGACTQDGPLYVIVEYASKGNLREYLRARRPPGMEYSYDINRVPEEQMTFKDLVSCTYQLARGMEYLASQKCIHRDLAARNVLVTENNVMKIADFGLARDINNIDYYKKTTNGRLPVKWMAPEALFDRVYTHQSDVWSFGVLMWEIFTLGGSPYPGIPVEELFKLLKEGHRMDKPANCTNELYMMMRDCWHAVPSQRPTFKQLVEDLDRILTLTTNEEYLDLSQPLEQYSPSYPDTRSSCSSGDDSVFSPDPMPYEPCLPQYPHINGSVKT
Chain of FGFR3 (P22607 23-806): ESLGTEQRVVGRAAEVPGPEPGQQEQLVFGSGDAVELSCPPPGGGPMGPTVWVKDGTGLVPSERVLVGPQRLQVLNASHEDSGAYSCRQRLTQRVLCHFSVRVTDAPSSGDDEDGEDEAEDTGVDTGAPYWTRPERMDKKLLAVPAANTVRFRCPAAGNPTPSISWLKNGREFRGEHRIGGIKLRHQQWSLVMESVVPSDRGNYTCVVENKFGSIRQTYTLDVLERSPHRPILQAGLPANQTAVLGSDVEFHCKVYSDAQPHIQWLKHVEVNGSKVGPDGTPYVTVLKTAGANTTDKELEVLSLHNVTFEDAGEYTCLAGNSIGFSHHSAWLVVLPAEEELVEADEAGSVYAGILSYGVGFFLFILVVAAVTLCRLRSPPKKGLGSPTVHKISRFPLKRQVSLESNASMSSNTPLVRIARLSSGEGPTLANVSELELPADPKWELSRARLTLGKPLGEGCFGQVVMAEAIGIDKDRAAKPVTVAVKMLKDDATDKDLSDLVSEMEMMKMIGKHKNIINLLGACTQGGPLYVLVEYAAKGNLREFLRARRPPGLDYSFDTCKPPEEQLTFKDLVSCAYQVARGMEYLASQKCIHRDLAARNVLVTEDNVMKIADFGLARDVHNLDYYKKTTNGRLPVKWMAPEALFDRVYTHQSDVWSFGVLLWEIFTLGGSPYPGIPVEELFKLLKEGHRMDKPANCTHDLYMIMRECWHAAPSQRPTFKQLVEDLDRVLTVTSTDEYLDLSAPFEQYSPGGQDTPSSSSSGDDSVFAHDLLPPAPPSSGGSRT

IC50 (FGFR1; [1]) | FGFR1/FGFR4 (FGFR1; [2]) | FGFR1/FGFR4 (FGFR1; pre-incubated for 4 hours) | IC50 (FGFR1; [3]) | IC50 (FGFR4; [4]) | IC50 (FGFR4; [5]) | IC50 (FGFR2) | FGFR2/FGFR4 (FGFR2; [2]) | FGFR2/FGFR4 (FGFR2; pre-incubated for 4 hours) | IC50 (FGFR2; [6]) | FGFR3/FGFR4 (FGFR3; [2]) | FGFR3/FGFR4 (FGFR3; pre-incubated for 4 hours) | IC50 (FGFR3; [7]) | IC50 (FGFR3; [8]) | IC50 (FGFR1; [9]) | IC50 (FGFR1; [10]) | IC50 (FGFR4; [11]) | IC50 (FGFR4; [12]) | IC50 (FGFR2; [13]) | IC50 (FGFR3) | SMILES
30 to 200 nM | >10 | >25 | > 200 nM | < 10 nM | < 10 nM | 30 to 200 nM | >10 | >25 | > 200 nM | >10 | >100 | > 200 nM | > 200 nM |  |  |  |  |  |  | C=CC(=O)Nc1ccc(N2CCN(C)CC2)cc1Nc1cc2c(cn1)CN(c1c(F)c(OC)cc(OC)c1F)C(=O)C21CC1 [Example 11, N-(2-(2′-(2,6-difluoro-3,5-dimethoxyphenyl)-3′-oxo-2′,3′-dihydro-1′H-spiro [cyclopropane-1,4′-[2,7]naphthyridine]-6′-ylamino)-4-(4-methylpiperazin-1-yl)phenyl)acrylamide]
30 to 200 nM | >10 | >100 |  | < 10 nM | < 10 nM | 30 to 200 nM | >10 | >100 | > 200 nM | >10 | >100 | > 200 nM | > 200 nM | 30 to 200 nM |  |  |  |  |  | C=CC(=O)Nc1ccccc1Nc1cc2c(cn1)CN(c1c(F)c(OC)cc(OC)c1F)C(=O)C21CCCC1 [Example 7, N-(2-(2′-(2,6-difluoro-3,5-dimethoxyphenyl)-3′-oxo-2′,3′-dihydro-1′H-spiro [cyclopentane-1,4′-[2,7]naphthyridine]-6′-ylamino)phenyl)acrylamide]
 | >10 | >100 | > 200 nM |  |  |  | >10 | >100 | > 200 nM | >10 | >100 | > 200 nM | > 200 nM |  | > 200 nM | 30 to 200 nM | 10 to 30 nM | > 200 nM |  | C=CC(=O)N[C@H]1CCC[C@H]1Oc1ncc2c(n1)C1(CC1)C(=O)N(c1c(F)c(OC)cc(OC)c1F)C2 [Example 12, N-((1 S,2R)-2-(6′-(2,6-difluoro-3,5-dimethoxyphenyl)-7′-oxo-6′,7′-dihydro-5′H-spiro[cyclopropane-1,8′-pyrido[4,3-d]pyrimidine]-2′-yloxy)cyclopentyl)acrylamide]
30 to 200 nM | >10 | >100 |  |  |  | > 200 nM | >10 | >100 | > 200 nM | >10 | >100 | > 200 nM |  | > 200 nM |  | < 10 nM | < 10 nM |  | > 200 nM | C=CC(=O)NC1COCC1Nc1cc2c(cn1)CN(c1c(F)c(OC)cc(OC)c1F)C(=O)C21CC1 (racemic) [Example 4, N-(4-(2′-(2,6-difluoro-3,5-dimethoxyphenyl)-3′-oxo-2′,3′-dihydro-1′H-spiro[cyclopropane-1,4′-[2,7]naphthyridine]-6′-ylamino)tetrahydrofuran-3-yl)acrylamide]
> 200 nM | >5 | >25 |  |  |  | > 200 nM | >5 | >25 | > 200 nM | >10 | >100 | > 200 nM |  | > 200 nM |  | 30 to 200 nM | < 10 nM |  | > 200 nM | C=CC(=O)NC1CCCCC1Nc1cc2c(cn1)CN(c1c(F)c(OC)cc(OC)c1F)C(=O)C21CC1 (racemic) [Example 3, N-(2-(2′-(2,6-difluoro-3,5-dimethoxyphenyl)-3′-oxo-2′,3′-dihydro-1′H-spiro [cyclopropane-1,4′-[2,7]naphthyridine]-6′-ylamino)cyclohexyl)acrylamide]
30 to 200 nM | >10 | >100 |  | < 10 nM | < 10 nM | 30 to 200 nM | >10 | >100 | 30 to 200 nM | >10 | >100 | 30 to 200 nM |  | 30 to 200 nM |  |  |  |  | 30 to 200 nM | C=CC(=O)Nc1ccccc1Nc1cc2c(cn1)CN(c1c(F)c(OC)cc(OC)c1F)C(=O)C21CC1 [Example 1, N-(2-(2′-(2,6-difluoro-3,5-dimethoxyphenyl)-3′-oxo-2′,3′-dihydro-1H-spiro[cyclopropane-1,4′-[2,7]naphthyridine]-6′-ylamino)phenyl)acrylamide]
 | >10 | >100 | > 200 nM | > 200 nM | < 10 nM |  | >10 | >100 | > 200 nM | >10 | >100 | > 200 nM | > 200 nM |  | > 200 nM |  |  | > 200 nM |  | C=CC(=O)Nc1ccccc1Nc1cc2c(cn1)CN(c1c(F)c(OC)cc(OC)c1F)C(=O)C21CCOCC1 [Example 8, N-(2-(2-(2,6-difluoro-3,5-dimethoxyphenyl)-3-oxo-2,2′,3,3′,5′,6′-hexahydro-1H-spiro[[2,7]naphthyridine-4,4′-pyran]-6-ylamino)phenyl)acrylamide]
30 to 200 nM | >10 | >100 | > 200 nM | < 10 nM | < 10 nM |  | >10 | >100 | > 200 nM | >10 | >100 | 30 to 200 nM |  |  |  |  |  | > 200 nM | 30 to 200 nM | C=CC(=O)Nc1ccc(N2CCOCC2)cc1Nc1cc2c(cn1)CN(c1c(F)c(OC)cc(OC)c1F)C(=O)C21CC1 [Example 10, N-(2-{[2′-(2,6-difluoro-3,5-dimethoxyphenyl)-3′-oxo-2′,3′-dihydro-1′H-spiro [cyclopropane-1,4′-[2,7]naphthyridin]-6′-yl]amino}-4-morpholin-4-ylphenyl)acrylamide]
 | >10 | >100 | > 200 nM | < 10 nM | < 10 nM |  | >10 | >100 | > 200 nM | >10 | >100 | > 200 nM | > 200 nM |  | > 200 nM |  |  | > 200 nM |  | C=CC(=O)Nc1cccc(C)c1Nc1cc2c(cn1)CN(c1c(F)c(OC)cc(OC)c1F)C(=O)C21CC1 [Example 5, N-(2-(2′-(2,6-difluoro-3,5-dimethoxyphenyl)-3′-oxo-2′,3′-dihydro-1′H-spiro [cyclopropane-1,4′-[2,7]naphthyridine]-6′-ylamino)-3-methylphenyl)acrylamide]
30 to 200 nM | >5 | >10 |  |  | < 10 nM | 30 to 200 nM | >2 | >5 | 30 to 200 nM | >5 | >10 | > 200 nM |  | 30 to 200 nM |  | 10 to 30 nM |  |  | 30 to 200 nM | C=CC(=O)N(C)c1cc2c(cn1)CN(c1c(F)c(OC)cc(OC)c1F)C(=O)C21CC1 [Example 2, N-(2′-(2,6-difluoro-3,5-dimethoxyphenyl)-3′-oxo-2′,3′-dihydro-1′H-spiro [cyclopropane-1,4′-[2,7]naphthyridine]-6′-yl)-N-methylacrylamide]
 | >10 | >100 | > 200 nM |  | < 10 nM |  | >10 | >100 | > 200 nM | >10 | >100 | > 200 nM | > 200 nM |  | > 200 nM | 10 to 30 nM |  | > 200 nM |  | C=CC(=O)Nc1ccccc1Nc1cc2c(cn1)CN(c1c(F)c(OC)cc(OC)c1F)C(=O)C21CCOC1 (stereo not drawn) [Example 9, N-(2-(2′-(2,6-difluoro-3,5-dimethoxyphenyl)-3′-oxo-2′,3′,4,5-tetrahydro-1′H,2H-spiro[furan-3,4′-[2,7]naphthyridine]-6′-ylamino)phenyl)acrylamide]
 | >10 | >100 | > 200 nM |  | < 10 nM |  | >10 | >100 | > 200 nM | >10 | >100 | > 200 nM | > 200 nM |  | > 200 nM | 10 to 30 nM |  | > 200 nM |  | C=CC(=O)Nc1ccccc1Nc1cc2c(cn1)CN(c1c(F)c(OC)cc(OC)c1F)C(=O)C2(C)C [Example 6, N-(2-(7-(2,6-difluoro-3,5-dimethoxyphenyl)-5,5-dimethyl-6-oxo-5,6,7,8-tetrahydro-2,7-naphthyridin-3-ylamino)phenyl)acrylamide]
